According to patent US20060052303A1, “Use of thyrotropin for regeneration of bone” (priority 2004, published 2006):

How the values were obtained:
[1] = test system: thyroid; details: in rats; cited from earlier work
[2] = test system: ovariectomized (OVX) rats; test: Bone restoration study in ovariectomized rats with native rat TSH (Example 3B); format: in vivo
Experimental: To confirm that TSH has an anabolic effect on bone, a restoration study was performed, Native rat TSH was administered seven months after ovariectomy essentially following a similar dose and dosing regimen as described in Example 2B except that administration of TSH was extended until 16 weeks.
Twelve animals were sham operated, while forty eight were ovariectomized (OVX) bilaterally by abdominal approach. Treatment started six weeks after ovariectomy as follows: (1) SHAM (n=12); (2) OVX+vehicle (n=12); (3) OVX+0.01 μg (n=12); (3) OVX+0.1 μg (n=12); and (4) OVX+0.3 μg (n=12).
Bone mineral density monitoring in vivo and ex vivo and serum and urine biochemical analyses were performed essentially as described in Example 3A. Eight-month old rats were ovariectomized and then left for seven months to lose bone. Therapy was then started and continued for 16 weeks and BMD was measured both in vivo and ex vivo, and microCT and serum biochemistry were performed.

[3] = test system: OVX rats; test: Treatment of osteopenia in OVX rats using rat TSH (Example 2B); format: in vivo
Experimental: A similar study following essentially the same dosing regimens. was performed using the native rat TSH in OVX rats. […] Rat TSH with a specific activity of approximately 90 lU/mg was obtained from the Scripps Institute. Bone mineral monitoring in vivo and serum and urine biochemical analyses were performed essentially as described in Example 3A.
Biochemical assays—Urinary levels of deoxypyridinoline cross-links and creatinine (DPD and Cr, respectively) are analyzed in duplicate using rat ELISA kits from Metrobiosystems (Mountain View, Calif., USA). Serum levels of osteocalcin (OSC) are measured using a rat sandwich ELISA kit from Biomedical Technologies (Stroughton, Mass., USA). The manufacturer's protocols are followed, and all samples are assayed in duplicate. A standard curve is generated from each kit, and the absolute concentrations are extrapolated from the standard curve. […]
The complete secondary spongiosa of the proximal tibia is evaluated, thereby completely avoiding sampling errors incurred by random deviations of a single section. […] From the binarized images, structural indices are assessed with three-dimensional (3D) techniques for trabecular bone.
Relative bone volume, trabecular number, thickness, and separation are calculated by measuring 3D distances directly in the trabecular network and taking the mean over all voxels.
Bone surface is calculated from a tetrahedron meshing technique. By displacing the surface of the structure in infinitesimal amounts, the structure model index (SMI) is calculated. The SMI quantifies the plate versus rod characteristics of trabecular bone, in which an SMI of 0 pertains to a purely plate-shaped bone, an SMI of 3 designates a purely rod-like bone, and values between stand for mixtures of plates and rods. Furthermore, connectivity density based on the Euler number is determined. In addition, a 3D cubical voxel model of bone is built, and cortical thickness is measured.

[4] = obtained from the Scripps Institute; cited from earlier work
[5] = in particular with 0.1 and 0.3 μg/rat

rat TSH: native rat TSH obtained from the Scripps Institute
effectiveness in stimulating thyroid hormone production compared to human recombinant TSH [1]: 10-20 times
BMD values of hind limbs in vivo ([2]; 0.01 μg/rat, 12 and 16 weeks time points): did not induce a measurable effect
cortical thickness above ovariectomized rats ([2]; 0.1 μg/rat): 14%
cortical thickness above sham animal values ([2]; 0.1 μg/rat): ~10%
ex vivo proximal femur BMD (DEXA) ([2]; 0.3 μg): increased
cortical thickness (microCT) ([2]; 0.1 and 0.3 μg/rat): increased
BMD values of hind limbs in vivo ([2]; 0.1 and 0.3 μg/rat, FIG. 14): increased
bone volume of long bones and the spine (microCT, trabecular bone ex vivo) ([2]; all three doses tested (0.01, 0.1, 0.3 μg)): increased
ex vivo lumbar spine BMD [2, 5]: increased
ex vivo tibia BMD [2, 5]: increased
trabecular number (microCT) ([2]; lesser extent than trabecular thickness): increased
T3 and T4 serum levels ([2]; rat, in vivo): no measurable increase
ex vivo distal femur BMD (DEXA) ([2]; rat, in vivo): slightly increased
ex vivo total femur BMD (DEXA) ([2]; rat, in vivo): slightly increased
trabecular thickness (microCT) ([2]; vs sham and ovariectomized rats): significantly increased
bone loss associated with ovariectomy ([3]; 0.01, 0.1, 0.3 μg per rat, in vivo total body, hind limbs, lumbar BMD, ex vivo proximal femur and tibia BMD, microCT): effective in preventing the bone loss
serum collagen C-telopeptide ([3]; indicates anti-resorptive activity): reduction
effective concentration in the rat relative to human TSH ([3]; rat, in vivo): effective in the rat at lower concentration than human TSH
specific activity [4]: approximately 90 lU/mg
